These results are taken from US20210198277A1, “AMINE-SUBSTITUTED ARYL OR HETEROARYL COMPOUNDS” (Epizyme, Inc., priority 2016, published 2021).

The structures appear in SMILES notation.

The assay addresses T1, EHMT2 (Homo sapiens, UniProt Q96KQ7).
T1 construct: host or cells: MDA-MB-231
T1 sequence (Q96KQ7 1-1210): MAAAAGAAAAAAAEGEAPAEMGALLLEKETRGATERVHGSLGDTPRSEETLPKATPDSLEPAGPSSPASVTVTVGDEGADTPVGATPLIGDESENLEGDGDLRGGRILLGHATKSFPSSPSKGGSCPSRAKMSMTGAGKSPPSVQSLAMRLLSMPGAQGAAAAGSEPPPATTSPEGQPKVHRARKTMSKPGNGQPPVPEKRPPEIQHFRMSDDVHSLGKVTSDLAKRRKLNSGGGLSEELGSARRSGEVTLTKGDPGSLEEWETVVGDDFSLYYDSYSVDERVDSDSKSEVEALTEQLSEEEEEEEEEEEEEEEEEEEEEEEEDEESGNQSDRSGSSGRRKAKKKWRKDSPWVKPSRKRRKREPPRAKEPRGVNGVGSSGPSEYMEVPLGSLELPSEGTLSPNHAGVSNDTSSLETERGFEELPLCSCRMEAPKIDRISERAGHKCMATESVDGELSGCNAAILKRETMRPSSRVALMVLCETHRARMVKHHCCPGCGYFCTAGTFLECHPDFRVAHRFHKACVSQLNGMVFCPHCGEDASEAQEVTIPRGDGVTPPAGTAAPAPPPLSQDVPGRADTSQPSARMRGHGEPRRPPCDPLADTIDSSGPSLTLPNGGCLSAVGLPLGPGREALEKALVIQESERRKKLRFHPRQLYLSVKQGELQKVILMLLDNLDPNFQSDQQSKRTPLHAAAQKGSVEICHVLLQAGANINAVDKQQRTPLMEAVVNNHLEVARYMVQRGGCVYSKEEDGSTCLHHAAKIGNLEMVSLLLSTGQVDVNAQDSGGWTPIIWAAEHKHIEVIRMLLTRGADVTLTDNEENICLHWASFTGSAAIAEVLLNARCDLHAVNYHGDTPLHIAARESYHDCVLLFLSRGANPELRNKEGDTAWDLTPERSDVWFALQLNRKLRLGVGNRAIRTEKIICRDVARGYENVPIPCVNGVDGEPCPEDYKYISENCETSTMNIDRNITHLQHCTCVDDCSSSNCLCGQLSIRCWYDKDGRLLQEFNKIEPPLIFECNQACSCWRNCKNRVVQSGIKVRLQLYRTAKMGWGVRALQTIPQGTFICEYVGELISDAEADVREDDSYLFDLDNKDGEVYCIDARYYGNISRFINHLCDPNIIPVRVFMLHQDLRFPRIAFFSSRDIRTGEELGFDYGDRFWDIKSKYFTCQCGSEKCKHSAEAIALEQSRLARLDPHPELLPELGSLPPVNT
Kind of assay: MDA-MB-231 H3K9me2 in-cell Western assay (EHMT2 ICW). Format: cell-based. Conditions: Table III; MDA-MB-231 H3K9me2 in-cell Western; read-out: EHMT2 ICW (IC50 μM). The essentials: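 MDA-MB-231 cells (3,000/well) seeded onto compound, kept 30 min at room temperature, then 48 h at 37 °C, 5% CO2. IC50 from triplicate wells, four-parameter fit.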

Usually IC50 stands for the concentration needed to halve the response being measured. Take `CNc1nc(C)cc(Nc2cc(OCCCN3CCCC3)c(OC)cn2)n1` [Compound 306, N^4-(5-methoxy-4-(3-(pyrrolidin-1-yl)propoxy)pyridin-2-yl)-N^2,6-dimethylpyrimidine-2,4-diamine]: the IC50 is above 10 µM.
For `CNc1cc(C)nc(Nc2cc(OCCCN3CCCC3)c(OC)cn2)c1` [Compound 307, N^2-(5-methoxy-4-(3-(pyrrolidin-1-yl)propoxy)pyridin-2-yl)-N^4,6-dimethylpyridine-2,4-diamine], the IC50 fell in the range of 0.1 to 1 µM.
Turning to `CNc1cc(Nc2cc(OCCCN3CCCC3)c(OC)cn2)cc(C)n1` [Compound 308, N^4-(5-methoxy-4-(3-(pyrrolidin-1-yl)propoxy)pyridin-2-yl)-N^2,6-dimethylpyridine-2,4-diamine], the half-maximal inhibitory concentration (IC50) lay within 1 to 10 µM.
With `CNc1cc(Nc2cc(OCCCN3CCCC3)c(OC)cn2)nc(C)c1F` [Compound 309, 5-fluoro-N^2-(5-methoxy-4-(3-(pyrrolidin-1-yl)propoxy)pyridin-2-yl)-N^4,6-dimethylpyridine-2,4-diamine], the IC50 lay in the range of 0.1 to 1 µM.
As for `COc1cnc(Nc2nc(C)cc3[nH]ccc23)cc1OCCCN1CCCC1` [Compound 310], the figure is above 10 µM; as for `CNc1cc(C)nc(Nc2ccc(OC)c(OCCOC)c2)n1` [Compound 311, N^2-(4-methoxy-3-(2-methoxyethoxy)phenyl)-N^4,6-dimethylpyrimidine-2,4-diamine], above 10 µM; as for `CNc1cc(C)nc(Nc2ccc(OC)c(OCCCOC)c2)n1` [Compound 312, N^2-(4-methoxy-3-(3-methoxypropoxy)phenyl)-N^4,6-dimethylpyrimidine-2,4-diamine], above 10 µM.
`CNc1cc(C)nc(Nc2ccc(C3CC3)c(OCCCN3CCCC3)c2)n1` [Compound 313, N^2-(4-cyclopropyl-3-(3-(pyrrolidin-1-yl)propoxy)phenyl)-N^4,6-dimethylpyrimidine-2,4-diamine]: the IC50 lay within 1 to 10 µM.
For `CNc1ccnc(Nc2ccc(C3CC3)c(OCCCN3CCCC3)c2)n1` [Compound 314, N^2-(4-cyclopropyl-3-(3-(pyrrolidin-1-yl)propoxy)phenyl)-N^4-methylpyrimidine-2,4-diamine], the IC50 lay within 1 to 10 µM.
In the case of `CNc1cc(C)nc(Nc2ccc(OC)c(OC[C@H]3C[C@@H](N(C)C)C3)c2)n1` [Compound 316], the IC50 lay in the range of 1 to 10 µM.
Turning to `CNc1cc(C)nc(Nc2ccc(OC)c(O[C@H]3C[C@@H](CN(C)C)C3)c2)n1` [Compound 318, N^2-(3-((1s,3s)-3-((dimethylamino)methyl)cyclobutoxy)-4-methoxyphenyl)-N^4,6-dimethylpyrimidine-2,4-diamine], the IC50 was above 10 µM.
In the case of `CCc1nc(Nc2ccc(OC)c(OCCCN3CCCC3)c2)nc(NC)c1F` [Compound 319, 6-ethyl-5-fluoro-N^2-(4-methoxy-3-(3-(pyrrolidin-1-yl)propoxy)phenyl)-N^4-methylpyrimidine-2,4-diamine], the IC50 fell in the range of 1 to 10 µM.
Consider `CNc1cc(C2CC2)nc(Nc2ccc(OC)c(OCCCN3CCCC3)c2)n1` [Compound 320, 6-cyclopropyl-N^2-(4-methoxy-3-(3-(pyrrolidin-1-yl)propoxy)phenyl)-N^4-methylpyrimidine-2,4-diamine], for which the IC50 lay within 0.1 to 1 µM.
Regarding `COc1cnc(Nc2cnc3ccccn23)cc1OCCCN1CCCC1` [Compound 321, N-(5-methoxy-4-(3-(pyrrolidin-1-yl)propoxy)pyridin-2-yl)imidazo[1,2-a]pyridin-3-amine], the 50% inhibitory concentration (IC50) was above 10 µM.
Then `CNc1ccnc(Nc2ccc(OC)c(OCCCN3CC(C)C3)c2)n1` [Compound 423, N^2-(4-methoxy-3-(3-(3-methylazetidin-1-yl)propoxy)phenyl)-N^4-methylpyrimidine-2,4-diamine], with 1 to 10 µM; and `CNc1ccnc(Nc2ccc(OC)c(OCCCN(C)CC3CC3)c2)n1` [Compound 424, N^2-(3-(3-((cyclopropylmethyl)(methyl)amino)propoxy)-4-methoxyphenyl)-N^4-methylpyrimidine-2,4-diamine], with 1 to 10 µM; and `CNc1ccnc(Nc2ccc(OC)c(OCCCN3CC(OC)C3)c2)n1` [Compound 425, N^2-(4-methoxy-3-(3-(3-methoxyazetidin-1-yl)propoxy)phenyl)-N^4-methylpyrimidine-2,4-diamine], with 1 to 10 µM.
Then `CNc1ccnc(Nc2ccc(OC)c(OCc3cc(C4CC4)on3)c2)n1` [Compound 426, N^2-(3-((5-cyclopropylisoxazol-3-yl)methoxy)-4-methoxyphenyl)-N^4-methylpyrimidine-2,4-diamine], with above 10 µM; and `CNc1ccnc(N[C@@H]2CCC[C@H](OCCCN3CCCC3)C2)n1` [Compound 427], with above 10 µM; and `CNc1cc(CC(F)(F)F)nc(Nc2ccc(OC)c(OCCCN3CCCC3)c2)n1` [Compound 428, N^2-(4-methoxy-3-(3-(pyrrolidin-1-yl)propoxy)phenyl)-N^4-methyl-6-(2,2,2-trifluoroethyl)pyrimidine-2,4-diamine], with 1 to 10 µM.
For `CNc1ccnc(Nc2ccc(OC)c(OCCCN3CCC3C)c2)n1` (stereo not shown) [Compound 429, N^2-(4-methoxy-3-(3-(2-methylazetidin-1-yl)propoxy)phenyl)-N^4-methylpyrimidine-2,4-diamine], the IC50 lay within 1 to 10 µM.
On to `CCOc1ccc(Nc2nccc(NC)n2)cc1OCCCN1CCCC1` [Compound 430, N^2-(4-ethoxy-3-(3-(pyrrolidin-1-yl)propoxy)phenyl)-N^4-methylpyrimidine-2,4-diamine], for which the IC50 is above 10 µM.
As for `CCOc1ccc(Nc2nccc(NC)n2)cc1OCC1CCN(C)C1` (stereo not shown) [Compound 431], the IC50 is above 10 µM.
In the case of `CCOc1ccc(Nc2nc(C)cc(NC)n2)cc1OCCCN1CCCC1` [Compound 432, N^2-(4-ethoxy-3-(3-(pyrrolidin-1-yl)propoxy)phenyl)-N^4,6-dimethylpyrimidine-2,4-diamine], the IC50 is above 10 µM.
Take `CNc1ccnc(Nc2ccc(OC)c(OCc3noc(C4CC4)n3)c2)n1` [Compound 433, N^2-(3-((5-cyclopropyl-1,2,4-oxadiazol-3-yl)methoxy)-4-methoxyphenyl)-N^4-methylpyrimidine-2,4-diamine]: the IC50 is above 10 µM.
Turning to `CNc1ccnc(Nc2ccc(OC)c(OCc3cn(C4CC4)nn3)c2)n1` [Compound 434, N^2-(3-((1-cyclopropyl-1H-1,2,3-triazol-4-yl)methoxy)-4-methoxyphenyl)-N^4-methylpyrimidine-2,4-diamine], the IC50 was above 10 µM.
For the compound `CNc1cc(C)nc(Nc2ccc(OC)c(OCC3CCN(C)CC3)c2)n1` [Compound 435, N^2-(4-methoxy-3-((1-methylpiperidin-4-yl)methoxy)phenyl)-N^4,6-dimethylpyrimidine-2,4-diamine], the IC50 was 1 to 10 µM.
Consider `CNc1cc(C)nc(Nc2ccc(OC)c(OCC3CCN(CC4CC4)CC3)c2)n1` [Compound 436, N^2-(3-((1-(cyclopropylmethyl)piperidin-4-yl)methoxy)-4-methoxyphenyl)-N^4,6-dimethylpyrimidine-2,4-diamine], for which the IC50 is above 10 µM.
Then `CNc1cc(C)nc(Nc2ccc(OC)c(OCC3CNC3)c2)n1` [Compound 437, N^2-(3-(azetidin-3-ylmethoxy)-4-methoxyphenyl)-N^4,6-dimethylpyrimidine-2,4-diamine], with 1 to 10 µM; and `CNc1ccnc(Nc2ccc(OC)c(OCCOC3CCCC3)c2)n1` [Compound 440, N^2-(3-(2-(cyclopentyloxy)ethoxy)-4-methoxyphenyl)-N^4-methylpyrimidine-2,4-diamine], with above 10 µM.
On to `CNc1cc(COC)nc(Nc2ccc(OC)c(OCCCN3CCCC3)c2)n1` [Compound 441, N^2-(4-methoxy-3-(3-(pyrrolidin-1-yl)propoxy)phenyl)-6-(methoxymethyl)-N^4-methylpyrimidine-2,4-diamine], for which the IC50 was in the range of 1 to 10 µM.
As for `CNc1cc(C)nc(Nc2ccc(OC)c(OCC3CN(C)C3)c2)n1` [Compound 442, N^2-(4-methoxy-3-((1-methylazetidin-3-yl)methoxy)phenyl)-N^4,6-dimethylpyrimidine-2,4-diamine], the figure is 0.1 to 1 µM.
In the case of `CNc1cc(C)nc(Nc2ccc(OC)c(OC3CCN(CC4CC4)CC3)c2)n1` [Compound 443], the IC50 was above 10 µM.
Then `CCN1CC(COc2cc(Nc3nc(C)cc(NC)n3)ccc2OC)C1` [Compound 444], with 0.1 to 1 µM.
